Measurements published in ChEMBL document CHEMBL5352418, “Molecular networking assisted discovery and combinatorial biosynthesis of new antimicrobial pleuromutilins” (Eur J Med Chem, 2022).
≈ marks a conversion by molar mass, not a printed value. Calls of active or inactive are those of the source. No cut-off for these calls is given here.

Experiments:
RAW264.7 [1] = experiment: Immunostimulatory activity in mouse RAW264.7 cells assessed as increase in cell viability at 1 uM incubated for 48 hrs by CCK-8 assay; assay type: functional
RAW264.7 [2] = experiment: Cytotoxicity activity mouse RAW264.7 cells assessed as reduction in cell viability at upto 100 uM incubated for 48 hrs by CCK-8 assay; assay type: toxicity, cell-based; conditions: raw264.7, 48 h
Staphylococcus aureus = experiment: Antibacterial activity against methicillin-resistant Staphylococcus aureus clinical isolate assessed as bacterial growth inhibition by CLSI protocol based broth microdilution method; assay type: functional
Enterococcus faecalis = experiment: Antibacterial activity against vancomycin-resistant Enterococcus faecalis clinical isolate assessed as bacterial growth inhibition by CLSI protocol based broth microdilution method; assay type: functional
RAW264.7 [3] = experiment: Immunostimulatory activity in mouse RAW264.7 cells assessed as increase in TNF-alpha production level at 1 uM incubated for 24 hrs by ELISA; assay type: functional, cell-based
RAW264.7 [4] = experiment: Immunostimulatory activity in mouse RAW264.7 cells assessed as increase in IL-6 production level at 1 uM incubated for 24 hrs by ELISA; assay type: functional, cell-based
RAW264.7 [5] = experiment: Immunostimulatory activity in mouse RAW264.7 cells assessed as increase in cell viability at 0.078 to 10 uM incubated for 48 hrs by CCK-8 assay; assay type: functional, cell-based; conditions: dose 0.078-10 µM
Pseudomonas aeruginosa = experiment: Antibacterial activity against Pseudomonas aeruginosa PA01 assessed as bacterial growth inhibition at 20 uM by CLSI protocol based broth microdilution method; assay type: functional; conditions: read-out: GI
Escherichia coli = experiment: Antibacterial activity against Escherichia coli OP50 assessed as bacterial growth inhibition at 20 uM by CLSI protocol based broth microdilution method; assay type: functional; conditions: read-out: GI
RAW264.7 [6] = experiment: Immunostimulatory activity in mouse RAW264.7 cells assessed as increase in NO production at 1 uM incubated for 24 hrs by Griess method; assay type: functional, cell-based

Row | SMILES | Activity (RAW264.7 [1]) | Activity (RAW264.7 [2]) | MIC (Staphylococcus aureus) [µM] | MIC (Enterococcus faecalis) [µM] | Activity (RAW264.7 [3]) | Activity (RAW264.7 [4]) | Activity (RAW264.7 [5]) | inhibition of growth at 20 µM (Pseudomonas aeruginosa) [%] | inhibition of growth at 20 µM (Escherichia coli) [%] | Activity (RAW264.7 [6])
1 | C=C[C@@]1(C)C[C@H](C)[C@]23CCC(=O)C2[C@@](C)([C@H](C)CC3)[C@H](OC(C)=O)C1 (some centres not stated) | inactive | Non-Toxic | 12.5 (≈ 4.33 µg/mL) | 1.25 (≈ 0.433 µg/mL) |  |  |  |  |  | 
2 | C=C[C@]1(C)C[C@@H](O)[C@@]2(C)C3CCC[C@@]3(CC[C@H]2C)[C@@H](C)C1 (some centres not stated) | inactive | Non-Toxic | 12.5 (≈ 3.63 µg/mL) | 20 (≈ 5.81 µg/mL) | Active |  |  |  |  | 
3 | C=C[C@]1(C)C[C@@H](OC(C)=O)[C@@]2(C)C3=CC(=O)C[C@@]3([C@H](O)C[C@H]2C)[C@@H](C)[C@@H]1O | inactive | Non-Toxic | > 20 | 5 (≈ 1.88 µg/mL) | Active | Active |  |  |  | 
4 | C=C[C@]1(C)C[C@@H](OC(=O)CO)[C@@]2(C)C3C(=O)CC[C@@]3(CC[C@H]2C)[C@@H](C)[C@@H]1O (some centres not stated) | 60% | Non-Toxic | 0.09 (≈ 0.0341 µg/mL) | 0.31 (≈ 0.117 µg/mL) |  |  | Dose-Dependent Effect | 40 | 71 | 
5 | C=C[C@]1(C)C[C@@H](O)[C@@]2(C)C3[C@H](O)CC[C@@]3(CC[C@H]2C)[C@@H](C)C1 (some centres not stated) | inactive | Non-Toxic | 12.5 (≈ 3.83 µg/mL) | 20 (≈ 6.13 µg/mL) |  |  |  |  |  | 
6 | C=C[C@]1(C)C[C@@H](OC(=O)CO)[C@@]2(C)C3=CC(=O)C[C@@]3(CC[C@H]2C)[C@@H](C)[C@@H]1O | inactive | Non-Toxic | > 20 | 5 (≈ 1.88 µg/mL) | Active |  |  |  |  | 
7 | CC(=O)OC[C@@H](O)[C@]1(C)C[C@@H](OC(=O)CO)[C@@]2(C)C3C(=O)CC[C@@]3(CC[C@H]2C)[C@@H](C)[C@@H]1O (some centres not stated) | inactive | Non-Toxic | > 20 | > 20 | Active | Active |  |  | 21 | 
8 | C[C@@H]1CC[C@@]23CCC(=O)C2[C@]1(C)[C@H](OC(=O)CO)C[C@@](C)([C@H](O)CO)[C@@H](O)[C@@H]3C (some centres not stated) | inactive | Non-Toxic | > 20 | 20 (≈ 8.25 µg/mL) | Active |  |  |  | 50 | Active
9 | C[C@@H]1CC[C@@]23CCC(=O)C2[C@]1(C)[C@H](OC(=O)CO)C[C@@]1(C)[C@H](O)CO[C@H]1[C@@H]3C (some centres not stated) | inactive | Non-Toxic | > 20 | 20 (≈ 7.89 µg/mL) | Active |  |  |  | 34 | Active
